Laboratory results: US20240172756A1, “ORGANOANTIMONY(V) C[…] AND METHODS OF PRODUCTION AND USE THEREOF” (priority 2021, published 2024)

Tests used:
Assay type in all cases: cell-based
[1] = tested on: Cryptococcus neoformans; experiment: Antifungal disk diffusion assay, C. neoformans; conditions: solid compound on paper disk
Description: (§1) To determine the antifungal properties of the two groups of Sb(V) cyanoximaes, Cryptococcus neoformans and Candida albicans, both of which are deadly human pathogens, were tested.
(§2) First, solid state powder compounds were deposited on paper disks and tested against two fungi: Cryptococcus neoformans and Candia albicans. Each experiment was conducted in triplicate with each compound at each concentration of deposited solid compound. The control was a blank paper (100% cotton disk).
(§3) Disk diffusion assays: No inhibition of Cryptococcus neoformans or Candida albicans for the following organoantimony(V) cyanoximate compounds at any concentration (S, ×2, ×4): H(ACO), H(ECO), H(MCO).

[2] = tested on: Candida albicans; experiment: Antifungal disk diffusion assay, C. albicans; conditions: solid compound on paper disk
Description: as §1, §2, §3

[3] = tested on: bacterial and fungal pathogens; experiment: Antimicrobial activity overall (disk diffusion and MIC tests, strain not specified); conditions: for antimicrobial effect in MIC assays: organism not given
Description: (§4) To determine the antimicrobial potential of the two generations (G1—based on SbPh4-core, and G2—based on SbMe3-core) of newly synthesized Sb(V) cyanoximates, several representative compounds were first selected and their antimicrobial properties tested by using disk diffusion assays, The minimal inhibitory concentrations (MIC) of selected compounds were also determined in liquid cultures. Three bacterial and two fungal pathogens were used as target microorganisms. Bacterial pathogens included Gram-negative Pseudomonas aeruginosa and Gram-positive Staphylococcus aureus, representing the ESKAPE group of human pathogens known for their high virulence and antibiotic resistance.
(§5) Two different types of antimicrobial studies were performed: 1) paper disk studies during growth on solid media; and 2) MIC determination during growth in liquid media. […] Antifungal disk assays concluded that Sb(Ph)4 (ECO) was effective against Cryptococcus neoformans and Candida albicans. […] For MIC assays, Sb(Ph)4 (MCO), the Sb(V) cyanoximate, was tested, along with the free cyanoximes H(MCO), H(ECO), and Na[H(ACO)2].

[4] = tested on: Cryptococcus neoformans; experiment: MIC assay, C. neoformans; conditions: for MIC, C. neoformans: Table 1
Description: as §1
(§6) MIC of the 3rd generation compounds, as well as complete MIC measurements for the 2nd generation Sb(V) compounds, are determined. A dilution assay in a 96-well-plate format, the gold standard for measuring MICS recommended by the Clinical Laboratory Standards Institute (CLSI), is utilized. Prior to plate inoculation, bacterial cultures of P. aeruginosa PAO1, S. aureus NRS70, E. foecium CC17, and E. coli S17 are grown in Mueller Hinton Broth (MHB) to middle log phase as determined by the individual growth curves and diluted to obtain absorbance at 600 nm of 0.1. These normalized cultures are diluted 1:100 using MHB and inoculated into the fresh medium with serially diluted Sb(V) compounds in 96-well plates. The plates are incubated for 24 h at 37° C. For fungal pathogens, cultures of Cryptococcus neoformans strain H99 and Candida albicans strain SC5314 are grown to stationary phase in YPD medium for 18 h at 30° C. Following incubation, fungal cells are centrifuged, washed three times with PBS, and then counted with trypan blue exclusion. Each compound is screened using a microdilution assay with 0.5×10^3 fungal cells in RPMI-MOPS medium at 35° C. for 48 h. Following incubations for bacterial or fungal pathogens, the OD600 is measured using a Biotek Synergy HT microtiter plate reader ([…].). The MIC is defined as the lowest concentration that inhibits growth. An aliquot from the clear wells from the MIC assay is plated on agar to determine minimum bactericidal concentration (MBC) or minimum fungicidal concentration (MFC). Each experiment is based on at least three biological replicates and repeated for consistency. The MIC and MBC for each compound is compared to those obtained for clinically applied antibiotics/antifungals. For bacterial pathogens, the corresponding antibiotics, such as tobramycin (P. aeruginosa), trimethoprim (S. aureus), gentamicin (E. coli) and ampicillin (E. foecium), are used. For fungal pathogens, the data is compared to the antifungal drugs Amphotericin B and Caspofungin for C. neoformans and C. albicans, respectively, by using the CLSI method.
(§7) Second, the compounds were dissolved in DMSO to […], and their minimal inhibitory concentration (MIC) was determined against C. neoformans and C. albicans. Starting concentration used was 100 μg/ml, and then diluted 1:2.
(§8) MIC assays: The MIC assay protocol utilized for determination of the effects of various organoantimony(V) cyanoximate compounds in various bacteria is shown in FIG. 16. Each solubilized in DMSO at 5 mg/ml, starting concentration is 100 μg/ml. Error bars represent standard error of the mean (if none, the values were identical in each experiment). Untested compounds have no bar. Bars reaching 100 μg/ml were not considered to have antifungal activity.

[5] = tested on: Escherichia coli; experiment: MIC in liquid culture, E. coli; conditions: for MIC, E. coli: Table 1; for antimicrobial effect: strain S17, paper disk and MIC studies
Description: as §4, §6, §5, §8

[6] = tested on: Pseudomonas aeruginosa; experiment: MIC in liquid culture, P. aeruginosa; conditions: for MIC, P. aeruginosa: Table 1; for antimicrobial effect: strain PAO1, paper disk and MIC studies
Description: as §4, §6, §5, §8

[7] = tested on: Candida albicans; experiment: MIC assay, C. albicans; conditions: for MIC, C. albicans: Table 1
Description: as §1, §6, §7, §8

[8] = tested on: Staphylococcus aureus; experiment: MIC in liquid culture, S. aureus; conditions: for MIC, S. aureus: Table 1; for antimicrobial effect: Methicillin-resistant strain NRS70, paper disk and MIC studies
Description: as §4, §6, §5, §8

[9] = tested on: Staphylococcus aureus MRSA; experiment: Broth dilution assay, S. aureus MRSA; conditions: multi-drug resistant strain, FIG. 20
Excerpt: As shown in FIGS. 20-21, compounds containing Sb display higher bactericidal activity against Gram positive Staphylococcus aureus (FIG. 20) than Gram negative E. coli (FIG. 21). […] In addition, 25-40% reduction of growth was also observed for Sb(Ph4)Br, Sb(Ph4)ECO, Sb(Ph4)ACO, and Sb(Ph4)TCO against Gram negative E. coli (FIG. 21).

[10] = in DMSO, starting concentration 100 μg/ml, active if MIC below 100 μg/ml

| Compound | antifungal activity / zone of inhibition in disk assay [1] | antifungal activity / zone of inhibition in disk assay [2] | MIC, C. neoformans [4] | MIC, E. coli [5] | MIC, P. aeruginosa [6] | MIC, C. albicans [7] | MIC, S. aureus [8] | further results |
| --- | --- | --- | --- | --- | --- | --- | --- | --- |
| N#C/C(=N\O)C(N)=O [H(ACO), reference compound] | No inhibition | No inhibition |  |  |  |  |  | antimicrobial activity [3]: most antimicrobially active |
| CCOC(=O)/C(C#N)=N/O [H(ECO), reference compound] | No inhibition | No inhibition |  |  |  |  |  | antimicrobial effect in MIC assays [3]: no antimicrobial effect |
| N#CC(=NO)C(=O)N1CCOCC1 [H(MCO), reference compound] | No inhibition | No inhibition |  |  |  |  |  | antimicrobial activity [3]: most antimicrobially active; antimicrobial effect in MIC assays [3]: no antimicrobial effect |
| N#CC(=NO)C(N)=O.N#CC(=N[O-])C(N)=O.[Na+] [Na[H(ACO)2]] |  |  |  |  |  |  |  | antimicrobial effect in MIC assays [3]: no antimicrobial effect |
| [CH3][Sb]([CH3])([CH3])([O]N=C(C#N)c1ccc(Cl)cc1Cl)[O]N=C(C#N)c1ccc(Cl)cc1Cl [SbMe3(2,4-ClPhCO)2] |  |  | >100 µg/mL | >200 µg/mL | >200 µg/mL | >100 µg/mL |  |  |
| [CH3][Sb]([CH3])([CH3])([O]N=C(C#N)c1c(Cl)cccc1Cl)[O]N=C(C#N)c1c(Cl)cccc1Cl [SbMe3(2,6-ClPhCO)2] |  |  | >100 µg/mL | 50 µg/mL | >200 µg/mL | >100 µg/mL |  | antimicrobial activity [3]: pronounced antimicrobial activity |
| [CH3][Sb]([CH3])([CH3])([O]N=C(C#N)c1ccccc1Cl)[O]N=C(C#N)c1ccccc1Cl [SbMe3(2-ClPhCO)2] |  |  | >100 µg/mL | >200 µg/mL | >200 µg/mL | >100 µg/mL | >200 µg/mL |  |
| CCOC(=O)C(C#N)=N[O][Sb]([CH3])([CH3])([CH3])[O]N=C(C#N)C(=O)OCC [SbMe3(ECO)2] |  |  |  | >200 µg/mL | >200 µg/mL |  | >200 µg/mL |  |
| [CH3][Sb]([CH3])([CH3])([O]N=C(C#N)C(=O)N1CCOCC1)[O]N=C(C#N)C(=O)N1CCOCC1 [SbMe3(MCO)2] |  |  |  | >200 µg/mL | 50 µg/mL |  | >200 µg/mL | antimicrobial activity [3]: pronounced antimicrobial activity |
| [CH3][Sb]([CH3])([CH3])([O]N=C(C#N)C(N)=S)[O]N=C(C#N)C(N)=S [SbMe3(TCO)2] |  |  |  | >200 µg/mL | >200 µg/mL |  |  |  |
| CN(C)C(=S)C(C#N)=N[O][Sb]([CH3])([CH3])([CH3])[O]N=C(C#N)C(=S)N(C)C [SbMe3(TDCO)2] |  |  |  | >200 µg/mL | >200 µg/mL |  |  |  |
| [CH3][Sb]([CH3])([CH3])([Br])[Br] [SbMe3Br2, triemethylantimony(V) dibromide, reference compound] |  |  | >100 µg/mL | 150 µg/mL | 50 µg/mL | >100 µg/mL | 100 µg/mL |  |
| N#CC(=N[O][Sb]([c]1ccccc1)([c]1ccccc1)([c]1ccccc1)[c]1ccccc1)C(N)=O [SbPh4ACO] | effective | only effective at inhibition of Cryptococcus neoformans | 18.8 µg/mL | 100 µg/mL | 100 µg/mL | 15.6 µg/mL | 100 µg/mL | MIC (minimum inhibitory concentrations) [9]: 100 µg/mL; bactericidal activity [9]: significant bactericidal activity; antimicrobial effect [5]: significant antimicrobial effect; antimicrobial effect [6]: significant antimicrobial effect; antimicrobial effect [8]: significant antimicrobial effect |
| [Br][Sb]([c]1ccccc1)([c]1ccccc1)([c]1ccccc1)[c]1ccccc1 [SbPh4Br, tetraphenylantimony(V) bromide, reference compound] |  |  |  |  |  |  |  | bactericidal activity [9]: significant bactericidal activity |
| CCOC(=O)C(C#N)=N[O][Sb]([c]1ccccc1)([c]1ccccc1)([c]1ccccc1)[c]1ccccc1 [SbPh4ECO] | effective | effective | 10.9 µg/mL | >200 µg/mL | 150 µg/mL | 31.2 µg/mL | 150 µg/mL | bactericidal activity [9]: significant bactericidal activity; antimicrobial effect [5]: significant antimicrobial effect; antimicrobial effect [6]: significant antimicrobial effect; antimicrobial effect [8]: significant antimicrobial effect |
| N#CC(=N[O][Sb]([c]1ccccc1)([c]1ccccc1)([c]1ccccc1)[c]1ccccc1)C(=O)N1CCOCC1 [SbPh4MCO] |  |  | 19.8 µg/mL | >200 µg/mL | 200 µg/mL | 32.1 µg/mL | 100 µg/mL | concentration with fungicidal activity (killed C. neoformans) ([4]; Example 6): 100 µg/mL; MIC with C. neoformans ([4]; Example 6, three independent experiments): 22.5 µg/mL; antifungal activity in MIC assay [4, 10]: exhibited antifungal activity; antifungal activity in MIC assay [7, 10]: exhibited antifungal activity |
| CN(C)C(=S)C(C#N)=N[O][Sb]([c]1ccccc1)([c]1ccccc1)([c]1ccccc1)[c]1ccccc1 [SbPh4TDCO] | effective | only effective at inhibition of Cryptococcus neoformans | 33.3 µg/mL | >200 µg/mL | >200 µg/mL | 100 µg/mL | 100 µg/mL | antimicrobial effect [5]: essentially no antimicrobial activity; antimicrobial effect [6]: essentially no antimicrobial activity; antimicrobial effect [8]: significant effects |
